Test results from patent US20190100519A1, “HYDROCHLORIDE SALT CRYSTAL OF DRUG FOR TREATING OR PREVENTING JAK-ASSOCIATED DISEASE AND PREPARATION METHOD THEREOF” (CRYSTAL PHARMATECH CO., LTD., priority 2016, published 2019).
Values after ≈ are worked out from the molar mass of the structure shown. Where two headings read alike, the source gives them in different places.

Tests used:
[1] = Slurry experiment in different water activities (XRPD); type: physicochemical
Procedure: The samples were centrifuged after 48 hours, and tested by XRPD.

[2] = Particle size comparison experiment (laser particle size analyzer); type: physicochemical; conditions: wet method, Isopar G
Procedure: Wet method was used and Isopar G was used as the dispersion medium. [table] The particle size distributions of obtained Form A (example 2), Form B (example 4), Form C (example 5), Form D (example 8) and the reference form were measured.

[3] = Solubility assessment (saturated solutions, HPLC); type: physicochemical; conditions: for solubility at 1 h / solubility at 4 h: thermodynamic from solid
Procedure: The concentration of the saturated solutions was measured through HPLC after 1 hour and 4 hours.

[4] = clinical trials; cited from earlier work
[5] = Stability assessment of Form A (storage, XRPD); type: physicochemical; conditions: two weeks
Procedure: 5 samples (10.0 mg each) of Form A obtained from example 2 was stored at 5° C., 25° C./60% RH, 40° C./75% RH, 60° C./75% RH and 80° C. for two weeks, then XRPD test was performed after one week and two weeks. The results are depicted in FIG. 6 and FIG. 7. FIG. 6 is the XRPD overlay of one-week stability, and the patterns from top to bottom are initial Form A, and Form A after storing at 25° C./60% RH, 40° C./75% RH, 60° C./75% RH, 80° C. for one week, respectively. FIG. 7 is the XRPD overlay of two-week stability, and the patterns from top to bottom are initial Form A, and Form A after storing at 25° C./60% RH, 40° C./75% RH, 60° C./75% RH and 80° C. for two weeks, respectively.

[6] = simulated gastric fluid, Solubility SGF

Row | D10 [2] [μm] | D50 [2] [μm] | D90 [2] [μm] | MV (average particle size calculated by volume) [2] [μm] | Solubility SGF ([3]; 1 h) [µg/mL] | Solubility Water ([3]; 1 h) [µg/mL] | Solubility SGF ([3]; 4 h) [µg/mL] | Solubility Water ([3]; 4 h) [µg/mL] | Compound | solubility compared with reference form [3] | also measured
1 | 2.95 | 6.29 | 12.35 | 7.24 | – | – | – | – | O=C(Nc1nc2cccc(-c3ccc(CN4CCS(=O)(=O)CC4)cc3)n2n1)C1CC1 [Reference form, reference compound] | – | Final Form ([1]; H2O/ACN 1:99, water activity 0.2, slurry 48 hours): Form A; Final Form ([1]; H2O/ACN 2:98, water activity 0.4, slurry 48 hours): Form A; Final Form ([1]; H2O/EtOH 2:98, water activity 0.15, slurry 48 hours): Form A; Final Form ([1]; H2O/MeOH 7:93, water activity 0.2, slurry 48 hours): Form A; Final Form ([1]; H2O/MeOH 16:84, water activity 0.4, slurry 48 hours): Form A; stability under low water activity ([1]; low water activity): not stable; solubility at 1 h ([3]; simulated gastric fluid (SGF), simulated gastric fluid, simulated gastric fluid (SGF), 1 h, read-out: Solubility SGF): 70 µg/mL (≈ 165 µM); solubility at 4 h ([3]; simulated gastric fluid (SGF), simulated gastric fluid, simulated gastric fluid (SGF), 4 h, read-out: Solubility SGF): 920 µg/mL (≈ 2160 µM); solubility at 1 h ([3]; water, water, 1 h, read-out: Solubility Water): 810 µg/mL (≈ 1900 µM); solubility at 4 h ([3]; water, water, 4 h, read-out: Solubility Water): 3000 µg/mL (≈ 7050 µM)
2 | 2.53 | 20.30 | 110.4 | 44.66 | 1450 | 5020 | 960 | 3590 | Cl.O=C(Nc1nc2cccc(-c3ccc(CN4CCS(=O)(=O)CC4)cc3)n2n1)C1CC1 [Form B] | higher solubility than the reference form | –
3 | 1.87 | 13.57 | 66.16 | 29.92 | 1930 | 5180 | 1120 | 3060 | Cl.O=C(Nc1nc2cccc(-c3ccc(CN4CCS(=O)(=O)CC4)cc3)n2n1)C1CC1 [Form C] | higher solubility than the reference form | –
4 | – | – | – | – | – | – | – | – | O=C(Nc1nc2cccc(-c3ccc(CN4CCS(=O)(=O)CC4)cc3)n2n1)C1CC1 [Filgotinib, N-[5-[4-[(1,1-dioxo-1-thiomorpholin-4-yl)methyl]phenyl][1,2,4]triazole[1,5-a]pyridin-2-yl] cyclopropanecarboxamide] | – | anemia and abnormal increase in LDL [4]: does not cause an anemia and abnormal increase in LDL
5 | 5.77 | 25.92 | 82.42 | 41.24 | 2220 | 3000 | 1150 | 2370 | Cl.O=C(Nc1nc2cccc(-c3ccc(CN4CCS(=O)(=O)CC4)cc3)n2n1)C1CC1 [Form D] | higher solubility than the reference form | –
6 | 1.72 | 8.93 | 62.08 | 24.64 | – | 1080 | – | – | Cl.O=C(Nc1nc2cccc(-c3ccc(CN4CCS(=O)(=O)CC4)cc3)n2n1)C1CC1 [Form A] | higher solubility than the reference form | form change (XRPD) after storage ([5]; 5° C.): no form change; form change (XRPD) after storage ([5]; 25° C./60% RH): no form change; form change (XRPD) after storage ([5]; 40° C./75% RH): no form change; form change (XRPD) after storage ([5]; 60° C./75% RH): no form change; form change (XRPD) after storage ([5]; 80° C.): no form change; solubility at 1 h [3, 6]: 1280 µg/mL; solubility at 4 h [3, 6]: 1200 µg/mL; solubility at 4 h ([3]; water, Solubility Water): 2430 µg/mL
